1 compound from patent US20250137054A1, “COMPOSITION AND METHOD FOR EVALUATING RESPONSIVENESS OF EDARAVONE” (MITSUBISHI TANABE PHARMA CORPORATION, priority 2022, published 2025) can be followed below.

Assay [1] has as its system disease model cells (neurons derived from the 1464R cell line forcibly expressing wild-type and mutant TDP-43). The experiment in a line: Evaluation of cell protection using chromogenic substrate (Cell Counting Kit-8), with EA. Conditions: Eda 1-200 μmol/L 24 h, then EA 20 μmol/L 24 h; vs Comparative Example 1 (FIG. 3). Type of assay: cell-based, rat. On the procedure: Using both vectors (a) and (b), the differentiated cell line in the infection medium was infected with adenovirus at a multiplicity of infection of 50, and cultured for 24 hours. As a result, neurons derived from the 1464R cell line, in which both wild-type and mutant TDP-43 were forcibly expressed intracellularly (hereinafter, also referred to as disease model cells), were obtained.
After that, a cell toxicity measurement kit (Cell Counting Kit-8, manufactured by DOJINDO) was used to expose the cells in each group according to a product protocol, and an amount of chromogenic substrate produced was measured by absorbance at 450 nm.
With this kit, the more viable cells present, the more chromogenic substrate is produced, resulting in a higher absorbance value at 450 nm. Therefore, a higher absorbance at 450 nm indicates a greater number of viable cells.
The data shown in FIG. 3 are all expressed as mean±standard error of the mean (SEM, n=4 for each). In FIG. 3, the symbol “##” indicates a statistically significant difference of p<0.01 compared to Comparative Example 1 (determined by Student t-test). In FIG. 3, the symbol “*” indicates a statistically significant difference of p<0.05 compared to Comparative Example 1, and the symbol “**” indicates a statistically significant difference of p<0.01 compared to Comparative Example 1 (both determined by Williams' multiple comparison test).

For assay [2], the system named is disease model cells, TDP-43 (+). The experiment in a line: Evaluation of cell protection using chromogenic substrate (2), without EA. Type of assay: cell-based, rat. As to conditions: Eda 50 or 100 μmol/L 96 h, no EA; vs Comparative Example 2 (FIG. 12). From the text:
Using the differentiated cell line prepared using the method of Example 1 (indicated as “TDP-43 (−)” in FIG. 12), an Eda-unexposed group (Reference Example 2) and a 96-hour Eda-exposed group (final concentration 100 μmol/L) (Reference Example 3) were each prepared.
Further, using the disease model cells prepared using the method of Example 1 (indicated as “TDP-43 (+)” in FIG. 12), an Eda-unexposed group (Comparative Example 2) and 96-hour Eda-exposed groups (final concentration 50 or 100 μmol/L) (Examples 5-1 and 5-2) were each prepared.
All of these were performed without containing EA.
After that, similar to Example 3-1 and the like, a cell toxicity measurement kit was used to expose the cells in each group according to a product protocol, and an amount of chromogenic substrate produced was measured by absorbance at 450 nm.
The data shown in FIG. 12 are all expressed as mean±standard error of the mean (SEM, n=4 for each). In FIG. 12, the symbol “##” indicates a statistically significant difference of p<0.01 compared to Comparative Example 2. In FIG. 12, the symbol “**” indicates a statistically significant difference of p<0.05 compared to Comparative Example 2. In FIG. 12, the symbol “$” indicates a statistically significant difference of p<0.05 compared to Reference Example 2 (all determined by Student t-test).

For assay [3], the system named is healthy individual-derived neurons (iPS cell-derived motor neurons). The experiment in a line: Evaluation of cellular damage by live cell imaging, healthy individual-derived neurons. In kind it is cell-based, human. As to conditions: edaravone 30 μM, 24 hours. The procedure:
Human induced pluripotent stem (iPS) cells were induced from cells derived from an ALS patient and cells derived from a healthy individual using a conventional method. The cells derived from the ALS patient were used that are known to have an ALS risk mutation as a heterozygous mutation in the TARDBP gene. Each iPS cell was differentiated into a motor neuron (hereinafter, also simply referred to as a “neuron”) using a conventional method. […]
A treatment was performed in which the culture medium dissolved with a dimethyl sulfoxide (DMSO) solution of the evaluation compound (edaravone) (final concentration: edaravone 30 μM, DMSO 0.03% v/v) was brought into contact with the neurons after 7 days of cultivation, and occurrence of cellular damage was evaluated over time. […]
Evaluation of cellular damage was performed by live cell imaging using IncuCyte S3 (Sartorius) and Cytotox (Sartorius, 4846) according to an attached protocol. The neurite length per unit area (unit: mm/mm^2) and the number of dead cells (unit: count/image) were analyzed over time and used as evaluation indicators. […]

For `CC1=NN(c2ccccc2)C(=O)C1` [edaravone, 5-methyl-2-phenyl-2,4-dihydro-3H-pyrazol-3-one], the “absorbance at 450 nm (number of viable cells)” value in assay [1] is given as “increased in an Eda concentration-dependent manner”. In addition, the “number of viable cells (absorbance at 450 nm)” value in assay [2] is on record as “higher number of viable cells”. For the same compound, the “neurite length (rate of change, DMSO group = 100)” value in assay [3] (vs DMSO-treated group (FIG. 13)) was “no significant change”. In addition, the “number of dead neurons (rate of change, DMSO group = 100)” value in assay [3] (vs DMSO-treated group (FIG. 14)) is “no significant change”.
